This is an account of results in paper PMC10303159, “Conjugation of Triterpenic Acids of Ursane and Oleanane Types with Mitochondria-Targeting Cation F16 Synergistically Enhanced Their Cytotoxicity against Tumor Cells” (Membranes, 2023).

Where a name gives a salt, the structure may show the parent alone.

Series [1] has as its system H1299 cells (human non-small cell lung cancer). Briefly: MTT cytotoxicity assay, H1299. Format: cell-based. As to conditions: mean ± SEM. The source says: (§1) All cell lines used in this study (human non-small cell lung cancer—H1299 (Accession Number—CRL-5803), human lung carcinoma—A549 (Accession Number—CCL-185), human breast adenocarcinoma—MCF-7 (Accession Number—HTB-22), human breast ductal carcinoma—BT474 (Accession Number—HTB-20)) were purchased from American Type Culture Collection (ATCC, Manassas, VA, USA). Human primary dermal fibroblasts (HPDF) derived from a patch of skin of healthy donors (n = 3) were obtained from the biobank of the Institute for Regenerative Medicine, Lomonosov Moscow State University, collection ID: MSU_FB (https://human.depo.msu.ru (accessed on 14 September 2021)). Cells were grown in DMEM media supplemented with 10% fetal bovine serum, 100 μg/mL gentamycin, and 2 mM of glutamine at 37 °C in a 5% CO2 atmosphere.
(§2) To carry out the MTT assay, 3500 cells per well were seeded in 96-well plates. A day after the seeding, triterpenoids or their derivatives dissolved in DMSO were added. DMSO was used as a control. At 48 h after cell seeding, 10 μL of 5 mg/mL Thiazolyl Blue (Paneko, Russia) solution was added to each well and cells were kept for 3 h at 37 °C in a CO2 incubator. After removing the thiazol-containing medium, 150 μL of isopropyl alcohol (supplemented with 40 mM HCl and 0.1% NP-40) was added to dissolve the MTT-formazan salt. The absorbance at 570 and 630 nm (reference) was measured using a BioRad iMark microplate reader (BioRad, Hercules, CA, USA). Four biological replicates were used for the experiment. The results were processed with Excel software (version number: 14.0.6023.1000 (32-bit)). IC50 values were calculated by using AAT Bioquest online calculator (https://www.aatbio.com/tools/ic50-calculator, accessed on 15 May 2023) and are represented as the mean ± SEM.

In series [2] the test system is Human primary dermal fibroblasts (HPDF). The series can be described thus: MTT cytotoxicity assay, HPDF. Format: cell-based. To be noted: for IC50: Homo sapiens, Fibroblast, MTT assay, 48 h of treatment, mean ± SEM; for Selectivity against tumor cells and human fibroblasts: in words.
Description: as §1
as §2, with “A day after the seeding, triterpenoids or their derivatives dissolved in DMSO were added.” left out, “At 48 h after cell seeding, 10 μL of 5 mg/mL Thiazolyl Blue (Paneko, Russia) solution was added to each well and cells were kept for 3 h at 37 °C in a CO2 incubator.” left out
A general note: Tetrazolium dyes change colour on reduction, which living cells bring about.

The subject of series [3] is rat liver mitochondria. Briefly: Respiration of isolated mitochondria fueled by glutamate and malate. Format: biochemical. As to conditions: 20 μM. The procedure:
(§3) Mitochondria were obtained from the liver of male Wistar rats (210–250 g) using the differential centrifugation method. The detailed procedure and composition of the isolation media were described earlier. The suspension of isolated mitochondria contained about 60–70 mg of mitochondrial protein per ml (determined by the Bradford method).
(§4) The rate of O2 consumption by mitochondrial samples was estimated using Oxygraph Plus (Hansatech Instruments Ltd., Pentney, King’s Lynn, UK). The reaction medium included 200 mM sucrose, 20 mM KCl, 0.5 mM EGTA, 5 mM KH2PO4, and 10 mM Hepes/KOH, pH 7.4. The following combinations of substrates and reagents were used: 2.5 mM potassium glutamate + 2.5 mM potassium malate and 5 mM potassium succinate + 1 µM rotenone. Under these conditions, it is possible to assess the oxygen-consuming capacity of mitochondria through complexes I and II of the electron transport chain. To determine the rates of the phosphorylating respiration (State 3) and uncoupled respiration (State 3UDNP) of the mitochondria, 200 µM ADP and 50 µM 2,4-dinitrophenol (DNP) were added sequentially. The concentration of mitochondrial protein was 1 mg/mL.

Series [4] has as its system A549 cells (human lung carcinoma). Briefly: MTT cytotoxicity assay, A549. Format: cell-based. To be noted: for IC50: MTT assay, 48 h of treatment, mean ± SEM.
Description: as §1
as §2, with “A day after the seeding, triterpenoids or their derivatives dissolved in DMSO were added.” left out, “At 48 h after cell seeding, 10 μL of 5 mg/mL Thiazolyl Blue (Paneko, Russia) solution was added to each well and cells were kept for 3 h at 37 °C in a CO2 incubator.” left out

Series [5] deals with rat liver mitochondria. Briefly: Respiration of isolated mitochondria fueled by succinate. Format: biochemical. To be noted: 20 μM. Here is the method: as §3, §4
Series [6] relates to BT474 cells (human breast ductal carcinoma). The series can be described thus: MTT cytotoxicity assay, BT474. To be noted: BT-474, 48 h of treatment, mean ± SEM. Format: cell-based.
Description: as §1, §2

The test system of series [7] is MCF-7 cells (human breast adenocarcinoma). The series can be described thus: MTT cytotoxicity assay, MCF-7. Format: cell-based. To be noted: Homo sapiens, MCF7; MTT assay, 48 h of treatment, mean ± SEM.
Description: as §1, §2

Series [8] relates to rat liver mitochondria. Briefly: Mitochondrial membrane potential (TPP-sensitive electrode). Format: biochemical. To be noted: glutamate + malate or succinate + rotenone, Figure 5. Here is the method: as §3
The mitochondrial membrane potential (Δψ) was measured using a penetrating tetraphenylphosphonium bromide (TPP) cation and a TPP-sensitive electrode (Nico-Analyte Ltd., Moscow, Russia) as described previously. The concentration of mitochondrial protein was 1 mg/mL.

Setting [9] is: Homo sapiens, NCI-H1299, 48 h of treatment.

In general, IC50 refers to the concentration needed to halve the response being measured. Read a low IC50 as higher potency. For orientation: melting point means the temperature, or range, at which the solid turns liquid.

With `C[C@H]1[C@H](C)CC[C@]2(C(=O)O)CC[C@]3(C)C(=CC[C@@H]4[C@@]5(C)CC[C@H](O)C(C)(C)[C@@H]5CC[C@]43C)[C@H]12` [UA, ursolic acid, reference compound], the IC50 in [1] (setting [9]) turned out to be 97.6 ± 5.63 µM; in series [2], 59.1 ± 7.73 µM; in series [4] (Homo sapiens, A549, 48 h) it was 68.9 µM; in [4] it was 68.9 ± 19.6 µM; in series [6], 110 ± 19.1 µM; in series [7], 40.6 ± 12.5 µM. The “Selectivity against tumor cells and human fibroblasts” value in [2] is “have not shown selectivity”. The figures for the ADP/O with rat liver mitochondria [3] and with rat liver mitochondria [5] were 2.82 ± 0.03 rel. un and 1.43 ± 0.04 rel. un, respectively. Besides, the “RC (state 3/state 4)” value was determined as 2.13 ± 0.09 rel. un in the series with rat liver mitochondria [3] and 3.32 ± 0.12 rel. un in the series on rat liver mitochondria [5]. Besides, the “State 2 respiration” value with rat liver mitochondria [3] was determined as 8.01 ± 0.15 nmol O2/min/mg Protein; in the series with rat liver mitochondria [5], 15.19 ± 0.27 nmol O2/min/mg Protein. Moreover, the “State 3UDNP respiration” value in the series on rat liver mitochondria [3] is recorded as 36.66 ± 1.47 nmol O2/min/mg Protein; in the series with rat liver mitochondria [5], 75.91 ± 1.74 nmol O2/min/mg Protein. The “State 3 respiration” value in the series on rat liver mitochondria [3] is given as 26.92 ± 0.64 nmol O2/min/mg Protein; with rat liver mitochondria [5] it was 49.15 ± 0.30 nmol O2/min/mg Protein. Further, the “State 4 respiration” value in the series with rat liver mitochondria [3] is 12.65 ± 0.32 nmol O2/min/mg Protein; in the series with rat liver mitochondria [5] it was 15.54 ± 0.62 nmol O2/min/mg Protein. Also, in the series on rat liver mitochondria [8], the “Effect on membrane potential of organelles” value is on record as “did not show such an ability”.

Regarding `CC1CCC2(C(=O)OCCCC[n+]3ccc(C=Cc4c[nH]c5ccccc45)cc3)CCC3(C)C(=CCC4C5(C)CC(O)C(O)C(C)(C)C5CCC43C)C2C1C` (stereo not drawn) [CA-F16, N-{4-[(2α,3β-dihydroxy-urs-12-en-28-oyl)-butyl]-(E)-4-[2-(1H-indol-3-yl)-vinyl]}pyridinium bromide], the IC50 in series [1] (setting [9]) came to 4.01 ± 1.69 µM; in series [2] it was 1.15 ± 0.38 µM; in series [4] (Homo sapiens, A549, 48 h), 1.9 µM; in [4], 1.87 ± 0.14 µM; in series [6] it was 6.7 ± 0.35 µM; in series [7] it was 1.89 ± 0.27 µM. Moreover, the “Cytotoxicity higher than that of ursolic acid” value in series [4] (A549 line, ratio of IC50 values) was found to be 36 times.

`CC1(C)CCC2(C(=O)OCCCC[n+]3ccc(C=Cc4c[nH]c5ccccc45)cc3)CCC3(C)C(=CCC4C5(C)CC(O)C(O)C(C)(C)C5CCC43C)C2C1` (stereo not drawn) (as salt: bromide) [MA-F16, N-{4-[(2α,3β-dihydroxy-olean-12-en-28-oyl)-butyl]-(E)-4-[2-(1H-indol-3-yl)-vinyl]}pyridinium bromide]: the melting point lay within 206 to 208 °C.

Regarding `CC1(C)CC[C@]2(C(=O)O)CC[C@]3(C)C(=CC[C@@H]4[C@@]5(C)CC[C@H](O)C(C)(C)[C@@H]5CC[C@]43C)[C@@H]2C1` [OA, oleanolic acid, reference compound], the IC50 in series [1] (48 h of treatment) worked out at 139 ± 6.85 µM; in [1] (Homo sapiens, NCI-H1299, 48 h, 48 h of treatment), 139 µM; in series [2] it was 156 ± 10.4 µM; in [4] (Homo sapiens, A549, 48 h), 236 µM; in series [4], 234 ± 22.1 µM; in series [6], 150 ± 25.1 µM. In series [7], this compound yielded an IC50 of 114 ± 12.6 µM. For the same compound, in series [2], the “Selectivity against tumor cells and human fibroblasts” value is recorded as “have not shown selectivity”. The ADP/O is reported as 2.53 ± 0.12 rel. un in the series with rat liver mitochondria [3] and 1.45 ± 0.05 rel. un in the series on rat liver mitochondria [5]. In addition, the results for the “RC (state 3/state 4)” value in the series on rat liver mitochondria [3] and with rat liver mitochondria [5] were 2.11 ± 0.12 rel. un and 2.80 ± 0.09 rel. un, respectively. Also, the “State 2 respiration” value in the series on rat liver mitochondria [3] stood at 8.39 ± 0.09 nmol O2/min/mg Protein; with rat liver mitochondria [5], 15.06 ± 0.15 nmol O2/min/mg Protein. The “State 3UDNP respiration” value is given as 35.74 ± 0.66 nmol O2/min/mg Protein in the series with rat liver mitochondria [3] and 69.92 ± 0.68 nmol O2/min/mg Protein in the series with rat liver mitochondria [5]. The “State 3 respiration” value in the series with rat liver mitochondria [3] was 27.31 ± 0.31 nmol O2/min/mg Protein; with rat liver mitochondria [5], 48.00 ± 0.60 nmol O2/min/mg Protein. Besides, the entries for the “State 4 respiration” value with rat liver mitochondria [3] and in the series on rat liver mitochondria [5] were 13.23 ± 0.18 nmol O2/min/mg Protein and 17.18 ± 0.78 nmol O2/min/mg Protein, respectively. Moreover, the “Effect on membrane potential of organelles” value in the series on rat liver mitochondria [8] is “slightly reduce the membrane potential”.

`CC1CCC2(C(=O)OCCCC[n+]3ccc(C=Cc4c[nH]c5ccccc45)cc3)CCC3(C)C(=CCC4C5(C)CC(O)C(O)C(C)(C)C5CCC43C)C2C1C` (stereo not drawn) (as salt: bromide) [CA-F16, N-{4-[(2α,3β-dihydroxy-urs-12-en-28-oyl)-butyl]-(E)-4-[2-(1H-indol-3-yl)-vinyl]}pyridinium bromide] yielded a melting point of 219 to 221 °C.

Regarding `CC1(C)CCC2(C(=O)OCCCC[n+]3ccc(C=Cc4c[nH]c5ccccc45)cc3)CCC3(C)C(=CCC4C5(C)CC(O)C(O)C(C)(C)C5CCC43C)C2C1` (stereo not drawn) [MA-F16, N-{4-[(2α,3β-dihydroxy-olean-12-en-28-oyl)-butyl]-(E)-4-[2-(1H-indol-3-yl)-vinyl]}pyridinium bromide], the IC50 in [1] (setting [9]) turned out to be 10.5 ± 2.44 µM; in series [2] it was 9.3 ± 2.56 µM; in [4] (Homo sapiens, A549, 48 h), 13.5 ± 2.02 µM; in [6] it was 11.1 ± 2.51 µM; in series [7], 7.44 ± 0.78 µM.
